Data from patent publication US20260078103A1, “ISOQUINOLONES AS PI3K INHIBITORS” (OnKure, Inc., priority 2022, published 2026).
Like-named read-outs stand apart in the source and are kept apart here.

Assays:
Format in all cases: cell-based
[1] = tested on: phosphorylation of AKT (pAKT) in T47D cells expressing mutant PI3Ka (H1047R); assay: In vitro cell pAKT (Ser473) HTRF, T47D cells
Procedure, shortened: (§1)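 T47D cells (RPMI, 10% FBS, 0.2 units/mL insulin) or SKBR3 cells (McCoy's 5a, 10% FBS) were seeded onto 10-point compound dilutions and incubated 6 h at 37 °C. After lysis, pAKT was detected overnight by HTRF (Eu cryptate/d2). IC50 was fitted from % inhibition relative to 0.1% DMSO and 10 uM alpelisib controls.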

[2] = tested on: phosphorylation of AKT (pAKT) in SKBR3 cells express WT PI3Ka; assay: In vitro cell pAKT (Ser473) HTRF, SKBR3 cells
Procedure, shortened: as §1

[3] = tested on: T47D cells expressing mutant PI3Ka (H1047R); assay: In vitro cell proliferation, T47D cells (CellTiter-Glo); conditions: inhibition of proliferation, read-out: Avg T-47D EC50
Procedure, shortened: (§2)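 Proliferation was read by CellTiter-Glo luminescence after 72 h of exposure to 10-point compound dilutions at 37 °C and 5% CO2. T47D (RPMI, 10% FBS, insulin 0.2 units/mL) and SKBR3 (McCoys 5a, 10% FBS) cells were seeded at 1,500 cells/well. EC50 was fitted from inhibition relative to DMSO and 10 uM Alpelisib.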

[4] = tested on: SKBR3 cells express WT PI3Ka; assay: In vitro cell proliferation, SKBR3 cells (CellTiter-Glo); conditions: inhibition of proliferation
Procedure, shortened: as §2

[5] = cellular pAKT, T47D cells, mutant PI3Ka (H1047R), 6 hours, read-out: Avg T-47D IC50
[6] = Homo sapiens, T47D, 6 h, cellular pAKT, T47D cells, mutant PI3Ka (H1047R), 6 hours, read-out: Avg T-47D IC50
[7] = Homo sapiens, SK-BR-3, 6 h, cellular pAKT
[8] = Homo sapiens, T47D, 6 h, read-out: Avg T-47D IC50, cellular pAKT, T47D cells, mutant PI3Ka (H1047R), 6 hours
[9] = Homo sapiens, SK-BR-3, cellular pAKT, 6 hours

Row | Structure (SMILES) | IC50 [1, 5] | IC50 ([2]; cellular pAKT, 6 hours) | EC50 ([3]; 72 hours) | EC50 ([4]; 72 hours) | IC50 [1, 6] | IC50 [2, 7] | EC50 ([3]; Homo sapiens, T47D, 72 h) | EC50 ([4]; Homo sapiens, SK-BR-3, 72 h) | IC50 [1, 8] | IC50 [2, 9]
1 | Cc1cc(C(C)Nc2ccccc2C(=O)O)c2cc(-c3ccc(N4CCOCC4)nc3)n(C)c(=O)c2c1 (single isomer, unassigned) [Example 486] | 2 to 15 µM | > 15 µM | 2 to 15 µM | > 15 µM | – | – | – | – | – | –
2 | Cc1cc(C(C)Nc2ccccc2C(=O)O)c2cc(-c3ccc(N4CCOCC4)nc3)n(C)c(=O)c2c1 (single isomer, unassigned) [Example 487] | 0.001 to 0.5 µM | 2 to 15 µM | 0.001 to 0.5 µM | 2 to 15 µM | – | – | – | – | – | –
3 | C[C@@H](Nc1ccccc1C(=O)O)c1cc(F)cc2c(=O)n(C)c(C3C[C@@H]3C(F)F)cc12 (single isomer, unassigned) [Example 488] | – | – | – | – | 0.001 to 0.5 µM | > 15 µM | 0.001 to 0.5 µM | > 15 µM | – | –
4 | C[C@@H](Nc1ccccc1C(=O)O)c1cc(F)cc2c(=O)n(C)c(C3C[C@@H]3C(F)F)cc12 (single isomer, unassigned) [Example 489] | 0.001 to 0.5 µM | > 15 µM | 0.001 to 0.5 µM | > 15 µM | – | – | – | – | – | –
5 | C[C@@H](Nc1ccccc1C(=O)O)c1cc(F)cc2c(=O)n(C)c(C3C[C@@H]3CF)cc12 (single isomer, unassigned) [Example 493] | – | – | – | – | 0.001 to 0.5 µM | > 15 µM | 0.001 to 0.5 µM | > 15 µM | – | –
6 | C[C@@H](Nc1ccccc1C(=O)O)c1cc(F)cc2c(=O)n(C)c(C3C[C@@H]3CF)cc12 (single isomer, unassigned) [Example 494] | 0.001 to 0.5 µM | > 15 µM | 0.001 to 0.5 µM | > 15 µM | – | – | – | – | – | –
7 | CC(Nc1ccccc1C(=O)O)c1cc(F)cc2c(=O)n(C)c(N3C4CCC3CN(CC(F)(F)F)C4)c(F)c12 (single isomer, unassigned) [Example 566] | > 15 µM | > 15 µM | 2 to 15 µM | – | – | – | – | 2 to 15 µM | – | –
8 | CC(Nc1ccccc1C(=O)O)c1cc(F)cc2c(=O)n(C)c(N3C4CCC3CN(CC(F)(F)F)C4)c(F)c12 (single isomer, unassigned) [Example 567] | 0.001 to 0.5 µM | 2 to 15 µM | 0.001 to 0.5 µM | 2 to 15 µM | – | – | – | – | – | –
9 | CC(Nc1ccccc1C(=O)O)c1cc(F)cc2c(=O)n(C)c(N3CCN(CC(F)(F)F)CC3)c(F)c12 (single isomer, unassigned) [Example 572] | 0.001 to 0.5 µM | 2 to 15 µM | 0.001 to 0.5 µM | – | – | – | – | > 15 µM | – | –
10 | CC(Nc1ccccc1C(=O)O)c1cc(F)cc2c(=O)n(C)c(N3CCN(CC(F)(F)F)CC3)c(F)c12 (single isomer, unassigned) [Example 573] | 2 to 15 µM | > 15 µM | 2 to 15 µM | > 15 µM | – | – | – | – | – | –
11 | C[C@@H](Nc1ccccc1C(=O)O)c1cc(F)cc2c(=O)n(C)c(C3C[C@@H]3CF)c(F)c12 (single isomer, unassigned) [Example 577] | – | – | – | – | 0.001 to 0.5 µM | > 15 µM | 0.001 to 0.5 µM | > 15 µM | – | –
12 | Cc1ccc(N[C@H](C)c2cc(F)cc3c(=O)n(C)c(C4CC4C4CC4)cc23)c(C(=O)O)n1 (stereo in doubt) [Example 45, 3-(((R)-1-(3-(trans-[1,1′-bi(cyclopropan)]-2-yl)-7-fluoro-2-methyl-1-oxo-1,2-dihydroisoquinolin-5-yl)ethyl)amino)-6-methylpicolinic acid] | 0.5 to 2 µM | > 15 µM | 2 to 15 µM | > 15 µM | – | – | – | – | – | –
13 | Cc1cc(C(C)Nc2ccccc2C(=O)O)c2cc(-c3cc4cc(F)ccc4[nH]3)n(C)c(=O)c2c1 (centres unmarked) [Example 7, 2-((1-(3-(5-fluoro-1H-indol-2-yl)-2,7-dimethyl-1-oxo-1,2-dihydroisoquinolin-5-yl)ethyl)amino)benzoic acid] | – | – | – | – | 0.5 to 2 µM | > 15 µM | 2 to 15 µM | > 15 µM | – | –
14 | Cc1cc(C(C)Nc2ccccc2C(=O)O)c2cc(N3C[C@@H]4[C@@H](C#N)[C@@H]4C3)n(C)c(=O)c2c1 (stereo partly drawn) [Example 14, 2-((1-(3-((1R,5S,6r)-6-cyano-3-azabicyclo[3.1.0]hexan-3-yl)-2,7-dimethyl-1-oxo-1,2-dihydroisoquinolin-5-yl)ethyl)amino)benzoic acid] | 0.001 to 0.5 µM | – | 0.001 to 0.5 µM | – | – | > 15 µM | – | > 15 µM | – | –
15 | Cc1cc(C(C)Nc2ccccc2C(=O)O)c2cc(N3C[C@@H]4[C@@H](C#N)[C@@H]4C3)n(C)c(=O)c2c1 (stereo partly drawn) [Example 15, 2-((1-(3-((1R,5S,6r)-6-cyano-3-azabicyclo[3.1.0]hexan-3-yl)-2,7-dimethyl-1-oxo-1,2-dihydroisoquinolin-5-yl)ethyl)amino)benzoic acid] | 2 to 15 µM | > 15 µM | 0.5 to 2 µM | > 15 µM | – | – | – | – | – | –
16 | Cc1cc([C@@H](C)Nc2ccc(Cl)nc2C(=O)O)c2cc(N3CCN(c4ccc(F)cc4)CC3)n(C)c(=O)c2c1 [Example 24, (R)-6-chloro-3-((1-(3-(4-(4-fluorophenyl)piperazin-1-yl)-2,7-dimethyl-1-oxo-1,2-dihydroisoquinolin-5-yl)ethyl)amino)picolinic acid] | – | – | – | – | – | – | 0.001 to 0.5 µM | 2 to 15 µM | 0.001 to 0.5 µM | 2 to 15 µM
17 | Cc1cc([C@@H](C)Nc2ccc(Cl)nc2C(=O)O)c2cc(N3CCN(Cc4ccc(F)cc4)CC3)n(C)c(=O)c2c1 [Example 25, (R)-6-chloro-3-((1-(3-(4-(4-fluorobenzyl)piperazin-1-yl)-2,7-dimethyl-1-oxo-1,2-dihydroisoquinolin-5-yl)ethyl)amino)picolinic acid] | – | – | – | – | 0.001 to 0.5 µM | 2 to 15 µM | 0.001 to 0.5 µM | 2 to 15 µM | – | –
18 | Cc1cc([C@@H](C)Nc2ccc(Cl)nc2C(=O)O)c2cc(-c3ccc(-c4ccc(F)cc4)nc3)n(C)c(=O)c2c1 [Example 26, (R)-6-chloro-3-((1-(3-(6-(4-fluorophenyl)pyridin-3-yl)-2,7-dimethyl-1-oxo-1,2-dihydroisoquinolin-5-yl)ethyl)amino)picolinic acid] | – | – | – | – | 0.001 to 0.5 µM | 2 to 15 µM | 0.001 to 0.5 µM | 2 to 15 µM | – | –
19 | Cc1cc([C@@H](C)Nc2ccc(Cl)nc2C(=O)O)c2cc(C3=CCN(CC(F)(F)F)CC3)n(C)c(=O)c2c1 [Example 27] | – | – | – | – | 0.001 to 0.5 µM | 2 to 15 µM | 0.001 to 0.5 µM | 2 to 15 µM | – | –
20 | CCn1c(N2CCC(C)(C)CC2)cc2c(C(C)Nc3ccccc3C(=O)O)cc(C)cc2c1=O (centres unmarked) [Example 29, 2-((1-(3-(4,4-dimethylpiperidin-1-yl)-2-ethyl-7-methyl-1-oxo-1,2-dihydroisoquinolin-5-yl)ethyl)amino)benzoic acid] | – | – | – | – | – | – | 2 to 15 µM | > 15 µM | > 15 µM | > 15 µM
21 | Cc1cc([C@@H](C)Nc2ccccc2C(=O)O)c2cc(SCc3ccccc3)n(C)c(=O)c2c1 [Example 34, (R)-2-((1-(3-(benzylthio)-2,7-dimethyl-1-oxo-1,2-dihydroisoquinolin-5-yl)ethyl)amino)benzoic acid] | – | – | – | – | – | – | 0.001 to 0.5 µM | > 15 µM | 0.001 to 0.5 µM | > 15 µM
22 | C[C@@H](Nc1cccc(F)c1C(=O)O)c1cc(F)cc2c(=O)n(C)c(C34CC(C(F)(F)F)(C3)C4)cc12 [Example 39, (R)-2-fluoro-6-((1-(7-fluoro-2-methyl-1-oxo-3-(3-(trifluoromethyl)bicyclo[1.1.1]pentan-1-yl)-1,2-dihydroisoquinolin-5-yl)ethyl)amino)benzoic acid] | – | – | – | – | 0.001 to 0.5 µM | > 15 µM | 0.001 to 0.5 µM | > 15 µM | – | –
23 | Cc1cc([C@@H](C)Nc2ccccc2C(=O)O)c2cc(OCC(C)C)n(C)c(=O)c2c1 [Example 40, (R)-2-((1-(3-isobutoxy-2,7-dimethyl-1-oxo-1,2-dihydroisoquinolin-5-yl)ethyl)amino)benzoic acid] | – | – | – | – | 0.001 to 0.5 µM | > 15 µM | 0.5 to 2 µM | > 15 µM | – | –
